In brackets after ≈: the same amount, converted by molar mass. Where two headings read alike, the source gives them in different places.
What was measured:
[1] = test system: M. suipneumoniae LABER; assay: MIC against mycoplasma in vitro; assay type: cell-based; details: Mesomycoplasma hyopneumoniae, 144 h
[2] = test system: M. suipneumoniae ATCC 25095; assay: MIC against mycoplasma in vitro; assay type: cell-based; details: Mesomycoplasma hyopneumoniae, ATCC25095, 144 h
[3] = test system: M. hyosynoviae ATCC 25591; assay: MIC against mycoplasma in vitro; assay type: cell-based; details: 144 h
[4] = test system: M. pneumoniae ATCC 15492; assay: MIC against mycoplasma in vitro; assay type: cell-based; details: Mycoplasmoides pneumoniae, ATCC15492, 144 h
[5] = test system: E. coli NCTC 10418; assay: MIC against human bacteria in vitro; assay type: cell-based; details: Escherichia coli
[6] = test system: E. coli ESS; assay: MIC against human bacteria in vitro; assay type: cell-based; details: Escherichia coli; E. coli ESS; 5% chocolated horse blood agar, 18 hours; read-out: MIC
[7] = test system: Ps. aeruginosa NCTC 10662; assay: MIC against human bacteria in vitro; assay type: cell-based; details: Pseudomonas aeruginosa, NCTC10662; Ps. aeruginosa NCTC 10662; 5% chocolated horse blood agar, 18 hours; read-out: MIC
[8] = test system: Haemophilus influenzae Wy21; assay: MIC against human bacteria in vitro; assay type: cell-based
[9] = test system: Bacillus subtilis 6633; assay: MIC against human bacteria in vitro; assay type: cell-based
[10] = test system: Corynebacterium xerosis 9755; assay: MIC against human bacteria in vitro; assay type: cell-based; details: Corynebacterium xerosis 9755; 5% chocolated horse blood agar, 18 hours; read-out: MIC
[11] = test system: Staph. aureus Russell; assay: MIC against human bacteria in vitro; assay type: cell-based; details: Staphylococcus aureus; Staph. aureus Russell; 5% chocolated horse blood agar, 18 hours; read-out: MIC
[12] = test system: Strep. pyogenes R80/421-A; assay: MIC against human bacteria in vitro; assay type: cell-based; details: Streptococcus pyogenes
[13] = test system: Strep. spp. 64/848-C; assay: MIC against human bacteria in vitro; assay type: cell-based; details: Strep. spp. 64/848-C; 5% chocolated horse blood agar, 18 hours; read-out: MIC
[14] = test system: E. coli NCTC 10418; assay: MIC against veterinary bacteria in vitro; details: Escherichia coli, NCTC10418, 18 h
Description: (§1) The activity of the compounds of the Examples against various veterinarily important bacteria, was assayed in vitro using two-fold serial dilutions in Diagnostic Sensitivity Test Agar inoculated with 10^4 organisms.

[15] = test system: E. coli E1; assay: MIC against veterinary bacteria in vitro; details: Escherichia coli, E1, 18 h
Description: as §1

[16] = test system: S. dublin S7; assay: MIC against veterinary bacteria in vitro; details: Salmonella enterica, S7, 18 h
Description: as §1

[17] = test system: Bord. bronchiseptica B09; assay: MIC against veterinary bacteria in vitro; details: Bordetella bronchiseptica, B09, 18 h
Description: as §1

[18] = test system: Past. multocida PA1; assay: MIC against veterinary bacteria in vitro; details: Pasteurella multocida, PA1, 18 h
Description: as §1

[19] = test system: Past. haemolytica PA5; assay: MIC against veterinary bacteria in vitro; details: Mannheimia haemolytica, PA5, 18 h
Description: as §1

[20] = test system: Strep. uberis SPU1; assay: MIC against veterinary bacteria in vitro; details: Streptococcus uberis, SPU1, 18 h
Description: as §1

[21] = test system: Strep. agalactiae SPA1; assay: MIC against veterinary bacteria in vitro; details: Streptococcus agalactiae, SPA1, 18 h
Description: as §1

[22] = test system: B. subtilis ATCC 6633; assay: MIC against veterinary bacteria in vitro; details: Bacillus subtilis, ATCC6633, 18 h
Description: as §1

[23] = test system: Haemophilus influenzae Q1; assay: MIC against human bacteria in vitro; assay type: cell-based; details: Haemophilus influenzae Q1; 5% chocolated horse blood agar, 18 hours; read-out: MIC
[24] = test system: Neisseria catarrhalis 1502; assay: MIC against human bacteria in vitro; assay type: cell-based; details: Neisseria catarrhalis 1502; 5% chocolated horse blood agar, 18 hours; read-out: MIC
[25] = M. suipneumoniae LABER, 6 days, 37° C., read-out: MIC
[26] = M. suipneumoniae ATCC 25095, 6 days, 37° C., read-out: MIC
[27] = M. hyosynoviae ATCC 25591, 6 days, 37° C., read-out: MIC
[28] = M. pneumoniae ATCC 15492, 6 days, 37° C., read-out: MIC
[29] = NCTC10418, E. coli NCTC 10418, agar with 5% chocolated horse blood, 18 hours, 37° C., read-out: MIC
[30] = Haemophilus influenzae, WY21, 18 h
[31] = Bacillus subtilis 6633, 5% chocolated horse blood agar, 18 hours, read-out: MIC
[32] = Haemophilus influenzae Wy21, 5% chocolated horse blood agar, 18 hours, read-out: MIC
[33] = Strep. pyogenes R80/421-A, 5% chocolated horse blood agar, 18 hours, read-out: MIC

Row | SMILES | MIC [1, 25] | MIC [4, 28] | MIC [5, 29] | MIC [6] | MIC [7] | MIC [9, 31] | MIC [10] | MIC [11] | MIC [13] | MIC [14] | MIC [15] | MIC [16] | MIC [17] | MIC [18] | MIC [19] | MIC [20] | MIC [21] | MIC [22] | MIC [8, 32] | MIC [12, 33] | further results
1 | C/C(=C\c1ncc(-c2ccsc2)o1)C[C@@H]1OC[C@H](C[C@@H]2O[C@H]2[C@@H](C)[C@H](C)O)[C@@H](O)[C@H]1O [Example 20, 5-(3-Thienyl)-2-(1-normon-2-yl) oxazole A] | 0.5 µg/mL (≈ 1.11 µM) | 0.5 µg/mL (≈ 1.11 µM) | > 128 µg/mL | 4 µg/mL (≈ 8.9 µM) | > 128 µg/mL | 0.5 µg/mL (≈ 1.11 µM) | > 128 µg/mL | 4 µg/mL (≈ 8.9 µM) | 2 µg/mL (≈ 4.45 µM) | > 80 µg/mL | > 80 µg/mL | > 80 µg/mL | 10 µg/mL (≈ 22.2 µM) | 2.5 µg/mL (≈ 5.56 µM) | 80 µg/mL (≈ 178 µM) | 0.156 µg/mL (≈ 0.347 µM) | 1.25 µg/mL (≈ 2.78 µM) | 10 µg/mL (≈ 22.2 µM) |  |  | MIC [2, 26]: 0.5 µg/mL (≈ 1.11 µM); MIC [3, 27]: 0.5 µg/mL (≈ 1.11 µM); MIC [8, 30]: 0.5 µg/mL (≈ 1.11 µM); MIC ([12]; R80/421A, 18 h): 0.25 µg/mL (≈ 0.556 µM)
2 | C/C(=C\c1ncc(-c2ccc(C#N)cc2)o1)C[C@@H]1OC[C@H](C[C@@H]2O[C@H]2[C@@H](C)[C@H](C)O)[C@@H](O)[C@H]1O [Example 21, 5-p-Cyanophenyl-2-(1-normon-2-yl) oxazole A] |  |  | > 128 µg/mL | 4 µg/mL (≈ 8.54 µM) | > 128 µg/mL | 1 µg/mL (≈ 2.13 µM) | > 128 µg/mL | 4 µg/mL (≈ 8.54 µM) | 4 µg/mL (≈ 8.54 µM) | > 80 µg/mL | > 80 µg/mL | > 80 µg/mL | 10 µg/mL (≈ 21.3 µM) | 2.5 µg/mL (≈ 5.34 µM) | 20 µg/mL (≈ 42.7 µM) | 0.156 µg/mL (≈ 0.333 µM) | 1.25 µg/mL (≈ 2.67 µM) | 2.5 µg/mL (≈ 5.34 µM) | 2 µg/mL (≈ 4.27 µM) | 1 µg/mL (≈ 2.13 µM) | MIC [1]: 0.25 µg/mL (≈ 0.534 µM); MIC [2]: 0.25 µg/mL (≈ 0.534 µM); MIC [3]: 0.1 µg/mL (≈ 0.213 µM); MIC [4]: 0.25 µg/mL (≈ 0.534 µM)
3 | C/C(=C\c1ncc(-c2ccc(S(=O)(=O)N(C)C)cc2)o1)C[C@@H]1OC[C@H](C[C@@H]2O[C@H]2[C@@H](C)[C@H](C)O)[C@@H](O)[C@H]1O [Example 24, 5-p-Dimethylaminosulphonylphenyl-2-(1-normon-2-yl)oxazole A] |  | 0.5 µg/mL (≈ 0.908 µM) | > 64 µg/mL | 4 µg/mL (≈ 7.26 µM) | > 64 µg/mL | 4 µg/mL (≈ 7.26 µM) | > 128 µg/mL | 4 µg/mL (≈ 7.26 µM) | 4 µg/mL (≈ 7.26 µM) | > 80 µg/mL | > 80 µg/mL | > 80 µg/mL | 40 µg/mL (≈ 72.6 µM) | 5 µg/mL (≈ 9.08 µM) | 40 µg/mL (≈ 72.6 µM) | 0.312 µg/mL (≈ 0.567 µM) | 1.25 µg/mL (≈ 2.27 µM) | 0.312 µg/mL (≈ 0.567 µM) | 4 µg/mL (≈ 7.26 µM) | 2 µg/mL (≈ 3.63 µM) | MIC [2]: 0.1 µg/mL (≈ 0.182 µM); MIC [3]: 0.25 µg/mL (≈ 0.454 µM)
4 | C/C(=C\c1ncc(-c2ccccc2[N+](=O)[O-])o1)C[C@@H]1OC[C@H](C[C@@H]2O[C@H]2[C@@H](C)[C@H](C)O)[C@@H](O)[C@H]1O [Example 26, 5-o-Nitrophenyl-2-(1-normon-2-yl)oxazole A] |  |  | > 128 µg/mL | 8 µg/mL (≈ 16.4 µM) | > 128 µg/mL |  | > 128 µg/mL | 4 µg/mL (≈ 8.19 µM) | 2 µg/mL (≈ 4.09 µM) | > 80 µg/mL | > 80 µg/mL | > 80 µg/mL | 20 µg/mL (≈ 40.9 µM) | 10 µg/mL (≈ 20.5 µM) |  | 0.156 µg/mL (≈ 0.319 µM) | 2.5 µg/mL (≈ 5.12 µM) | 0.312 µg/mL (≈ 0.639 µM) |  | 1 µg/mL (≈ 2.05 µM) | MIC [1]: 2.5 µg/mL (≈ 5.12 µM); MIC [2]: 2.5 µg/mL (≈ 5.12 µM); MIC [3, 27]: 0.5 µg/mL (≈ 1.02 µM); MIC [4]: 2.5 µg/mL (≈ 5.12 µM); MIC [8, 30]: 0.25 µg/mL (≈ 0.512 µM); MIC ([9]; Bacillus subtilis, 6633, 18 h): 0.25 µg/mL (≈ 0.512 µM)
5 | C/C(=C\c1ncc(Cc2ccccc2)o1)C[C@@H]1OC[C@H](C[C@@H]2O[C@H]2[C@@H](C)[C@H](C)O)[C@@H](O)[C@H]1O [Example 27, 5-Benzyl-2-(1-normon-2-yl)oxazole A] | 5 µg/mL (≈ 10.9 µM) | 10 µg/mL (≈ 21.9 µM) | > 64 µg/mL | 16 µg/mL (≈ 35 µM) | > 64 µg/mL | 4 µg/mL (≈ 8.74 µM) | > 64 µg/mL | 16 µg/mL (≈ 35 µM) | 16 µg/mL (≈ 35 µM) | > 80 µg/mL | > 80 µg/mL | > 80 µg/mL | 80 µg/mL (≈ 175 µM) | 20 µg/mL (≈ 43.7 µM) |  | 1.25 µg/mL (≈ 2.73 µM) | 20 µg/mL (≈ 43.7 µM) | 2.5 µg/mL (≈ 5.46 µM) | 2 µg/mL (≈ 4.37 µM) | 4 µg/mL (≈ 8.74 µM) | MIC [2, 26]: 5 µg/mL (≈ 10.9 µM); MIC [3]: 2.5 µg/mL (≈ 5.46 µM)
6 | C/C(=C\c1nc(-c2ccccc2)c(-c2ccccc2)o1)C[C@@H]1OC[C@H](C[C@@H]2O[C@H]2[C@@H](C)[C@H](C)O)[C@@H](O)[C@H]1O [Example 41, 4,5-Diphenyl-2-(1-normon-2-yl)oxazole A] | > 10 µg/mL | > 10 µg/mL |  | 50 µg/mL (≈ 96.2 µM) | > 100 µg/mL | 100 µg/mL (≈ 192 µM) | > 100 µg/mL | > 100 µg/mL | 100 µg/mL (≈ 192 µM) | > 80 µg/mL | > 80 µg/mL | > 80 µg/mL | > 80 µg/mL | 40 µg/mL (≈ 77 µM) | > 80 µg/mL | 10 µg/mL (≈ 19.2 µM) | 40 µg/mL (≈ 77 µM) |  | 25 µg/mL (≈ 48.1 µM) | > 100 µg/mL | MIC [2, 26]: > 10 µg/mL; MIC [3, 27]: > 10 µg/mL; MIC ([5]; NCTC10418, 18 h): > 100 µg/mL; MIC [23]: 10 µg/mL (≈ 19.2 µM); MIC [24]: 25 µg/mL (≈ 48.1 µM)

— patent US5041567A, “Antibacterial monic acid derivatives” (Beecham Group plc, priority 1982, dated 1991)
